This is an account of results in patent US20090082425A1 (priority 2007, published 2009).

For the assay, the system named is DU-145. In kind it is cell-based, human.

The structures appear in SMILES notation.

For `CC(=O)O[C@H]1C(=O)[C@@]2(C)[C@H]([C@H](OC(=O)c3ccccc3)[C@]3(O)C[C@H](OC(=O)[C@H](O)[C@@H](NC(=O)c4ccccc4)c4ccccc4)C(C)=C1C3(C)C)[C@]1(OC(C)=O)CO[C@@H]1C[C@@H]2O` [Taxol], the “Cell survival rate (%)” value amounted to 63.88%.
